Measured values: PubChem BioAssay (NCI)
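Each compound was tested at five concentrations against cells in 96-well plates for 48 hours. GI50 is the concentration that inhibits growth by half. The concentration for full growth arrest is given as TGI.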

Legend:
Experiment in all cases: DTP human tumour cell line panel, 48 h
SF-268 CNS = tested on: SF-268 CNS
CAKI-1 renal = tested on: CAKI-1 renal
OVCAR-8 ovarian = tested on: OVCAR-8 ovarian
M14 melanoma = tested on: M14 melanoma
T-47D breast = tested on: T-47D breast
RPMI-8226 leukemia = tested on: RPMI-8226 leukemia
COLO 205 colon = tested on: COLO 205 colon
NCI/ADR-RES ovarian = tested on: NCI/ADR-RES ovarian
LOX IMVI melanoma = tested on: LOX IMVI melanoma
IGROV1 ovarian = tested on: IGROV1 ovarian
HCT-116 colon = tested on: HCT-116 colon
UACC-62 melanoma = tested on: UACC-62 melanoma
U251 CNS = tested on: U251 CNS
TK-10 renal = tested on: TK-10 renal
UO-31 renal = tested on: UO-31 renal
ACHN renal = tested on: ACHN renal
PC-3 prostate = tested on: PC-3 prostate
786-0 renal = tested on: 786-0 renal
SF-295 CNS = tested on: SF-295 CNS
OVCAR-3 ovarian = tested on: OVCAR-3 ovarian
HOP-62 NSCLC = tested on: HOP-62 NSCLC
SK-MEL-28 melanoma = tested on: SK-MEL-28 melanoma
SN12C renal = tested on: SN12C renal
HL-60(TB) leukemia = tested on: HL-60(TB) leukemia
OVCAR-4 ovarian = tested on: OVCAR-4 ovarian
MOLT-4 leukemia = tested on: MOLT-4 leukemia
EKVX NSCLC = tested on: EKVX NSCLC
SK-MEL-2 melanoma = tested on: SK-MEL-2 melanoma
HS 578T breast = tested on: HS 578T breast
DU-145 prostate = tested on: DU-145 prostate
SW-620 colon = tested on: SW-620 colon
MCF7 breast = tested on: MCF7 breast
NCI-H522 lung = tested on: NCI-H522 lung
SR leukemia = tested on: SR leukemia
OVCAR-5 ovarian = tested on: OVCAR-5 ovarian
RXF 393 renal = tested on: RXF 393 renal
MALME-3M melanoma = tested on: MALME-3M melanoma
SK-OV-3 ovarian = tested on: SK-OV-3 ovarian
SNB-19 CNS = tested on: SNB-19 CNS
A498 renal = tested on: A498 renal
NCI-H23 lung = tested on: NCI-H23 lung
HCT-15 colon = tested on: HCT-15 colon
HCC-2998 colon = tested on: HCC-2998 colon
MDA-MB-435 = tested on: MDA-MB-435
KM12 colon = tested on: KM12 colon
K-562 leukemia = tested on: K-562 leukemia
SNB-75 CNS = tested on: SNB-75 CNS
SF-539 CNS = tested on: SF-539 CNS
NCI-H460 lung = tested on: NCI-H460 lung
BT-549 breast = tested on: BT-549 breast
NCI-H226 lung = tested on: NCI-H226 lung
MDA-MB-231 breast = tested on: MDA-MB-231 breast
A549 NSCLC = tested on: A549 NSCLC
HT29 colon = tested on: HT29 colon
SK-MEL-5 melanoma = tested on: SK-MEL-5 melanoma
CCRF-CEM leukemia = tested on: CCRF-CEM leukemia
UACC-257 melanoma = tested on: UACC-257 melanoma

Compound: NS(=O)(=O)OC[C@@H]1C[C@@H](n2ccc3c(NC4CCc5ccccc54)ncnc32)C[C@@H]1O (stereo partly drawn)
- GI50 (SF-268 CNS): 0.548 µM
- TGI (SF-268 CNS): > 100 µM
- GI50 (CAKI-1 renal): 0.52 µM
- TGI (CAKI-1 renal): > 100 µM
- GI50 (OVCAR-8 ovarian): 0.823 µM
- TGI (OVCAR-8 ovarian): 36.7 µM
- GI50 (M14 melanoma): 0.712 µM
- TGI (M14 melanoma): > 100 µM
- GI50 (T-47D breast): 0.0607 µM
- TGI (T-47D breast): 63.6 µM
- GI50 (RPMI-8226 leukemia): 5.41 µM
- TGI (RPMI-8226 leukemia): 27.6 µM
- GI50 (COLO 205 colon): 0.524 µM
- TGI (COLO 205 colon): > 51.2 µM
- GI50 (NCI/ADR-RES ovarian): 68.8 µM
- TGI (NCI/ADR-RES ovarian): > 100 µM
- GI50 (LOX IMVI melanoma): 0.0673 µM
- TGI (LOX IMVI melanoma): 0.436 µM
- GI50 (IGROV1 ovarian): 7.83 µM
- TGI (IGROV1 ovarian): > 100 µM
- GI50 (HCT-116 colon): 0.103 µM
- TGI (HCT-116 colon): 5.46 µM
- GI50 (UACC-62 melanoma): 0.0856 µM
- TGI (UACC-62 melanoma): 20.6 µM
- GI50 (U251 CNS): 0.559 µM
- TGI (U251 CNS): 36.9 µM
- GI50 (TK-10 renal): 14.1 µM
- TGI (TK-10 renal): > 100 µM
- GI50 (UO-31 renal): 11 µM
- TGI (UO-31 renal): > 100 µM
- GI50 (ACHN renal): 0.332 µM
- TGI (ACHN renal): 1.8 µM
- GI50 (PC-3 prostate): 17 µM
- TGI (PC-3 prostate): > 100 µM
- GI50 (786-0 renal): 0.671 µM
- TGI (786-0 renal): 29.7 µM
- GI50 (SF-295 CNS): 0.337 µM
- TGI (SF-295 CNS): 4.52 µM
- GI50 (OVCAR-3 ovarian): 2.93 µM
- TGI (OVCAR-3 ovarian): 33.7 µM
- GI50 (HOP-62 NSCLC): 3.23 µM
- TGI (HOP-62 NSCLC): > 46.9 µM
- GI50 (SK-MEL-28 melanoma): 3.94 µM
- TGI (SK-MEL-28 melanoma): > 100 µM
- GI50 (SN12C renal): 0.614 µM
- TGI (SN12C renal): > 100 µM
- GI50 (HL-60(TB) leukemia): 0.214 µM
- TGI (HL-60(TB) leukemia): 14 µM
- GI50 (OVCAR-4 ovarian): 15.7 µM
- TGI (OVCAR-4 ovarian): > 100 µM
- GI50 (MOLT-4 leukemia): 0.37 µM
- TGI (MOLT-4 leukemia): 11.1 µM
- GI50 (EKVX NSCLC): 21.4 µM
- TGI (EKVX NSCLC): > 100 µM
- GI50 (SK-MEL-2 melanoma): 0.74 µM
- TGI (SK-MEL-2 melanoma): 21 µM
- GI50 (HS 578T breast): 16.8 µM
- TGI (HS 578T breast): 61.3 µM
- GI50 (DU-145 prostate): 0.384 µM
- TGI (DU-145 prostate): > 100 µM
- GI50 (SW-620 colon): 3.34 µM
- TGI (SW-620 colon): > 77.6 µM
- GI50 (MCF7 breast): 0.0386 µM
- TGI (MCF7 breast): > 100 µM
- GI50 (NCI-H522 lung): 3.31 µM
- TGI (NCI-H522 lung): 27.3 µM
- GI50 (SR leukemia): 0.0827 µM
- TGI (SR leukemia): 29.5 µM
- GI50 (OVCAR-5 ovarian): 16.4 µM
- TGI (OVCAR-5 ovarian): 96.9 µM
- GI50 (RXF 393 renal): 11.2 µM
- TGI (RXF 393 renal): 37.1 µM
- GI50 (MALME-3M melanoma): 21.9 µM
- TGI (MALME-3M melanoma): > 92.8 µM
- GI50 (SK-OV-3 ovarian): 9.36 µM
- TGI (SK-OV-3 ovarian): > 93.9 µM
- GI50 (SNB-19 CNS): 12.5 µM
- TGI (SNB-19 CNS): > 100 µM
- GI50 (A498 renal): 0.123 µM
- TGI (A498 renal): 2.27 µM
- GI50 (NCI-H23 lung): 1.34 µM
- TGI (NCI-H23 lung): 46.1 µM
- GI50 (HCT-15 colon): 2.59 µM
- TGI (HCT-15 colon): 70.1 µM
- GI50 (HCC-2998 colon): 2.97 µM
- TGI (HCC-2998 colon): 18.2 µM
- GI50 (MDA-MB-435): 5.75 µM
- TGI (MDA-MB-435): > 100 µM
- GI50 (KM12 colon): 1.13 µM
- TGI (KM12 colon): 49.1 µM
- GI50 (K-562 leukemia): 0.405 µM
- TGI (K-562 leukemia): 32.3 µM
- GI50 (SNB-75 CNS): 20.8 µM
- TGI (SNB-75 CNS): > 100 µM
- GI50 (SF-539 CNS): 1.28 µM
- TGI (SF-539 CNS): 20.3 µM
- GI50 (NCI-H460 lung): 0.341 µM
- TGI (NCI-H460 lung): 23.9 µM
- GI50 (BT-549 breast): 22.8 µM
- TGI (BT-549 breast): > 95.7 µM
- GI50 (NCI-H226 lung): 0.362 µM
- GI50 (MDA-MB-231 breast): 10.1 µM
- TGI (MDA-MB-231 breast): > 100 µM
- GI50 (A549 NSCLC): 0.797 µM
- TGI (A549 NSCLC): 47.7 µM
- GI50 (HT29 colon): 0.566 µM
- TGI (HT29 colon): 29.2 µM
- GI50 (SK-MEL-5 melanoma): 0.305 µM
- TGI (SK-MEL-5 melanoma): 17.2 µM
- GI50 (CCRF-CEM leukemia): 0.324 µM
- TGI (CCRF-CEM leukemia): 55.9 µM
- GI50 (UACC-257 melanoma): 1.02 µM
- TGI (UACC-257 melanoma): > 90.7 µM
